{"source": "ChEMBL document CHEMBL1127904", "about": "“D-amino acids as novel P2/P3 ligands for inhibitors of HIV-1 protease” (Bioorg Med Chem Lett, 1994)", "data": [{"test_system": "CCRF-CEM", "assay": "Concentration required for in vitro antiviral activity against HIV-1 virus infected CEM cells", "assay_type": "functional, cell-based", "details": "Homo sapiens", "units": {"IC50": "nM"}, "values": [{"smiles": "CC(=O)N[C@@H](CSCc1ccccc1)C(=O)N[C@@H](Cc1ccccc1)[C@H](O)Cc1ccccc1C(=O)NC(C)(C)C", "IC50": 2910}, {"smiles": "CC(C)(C)NC(=O)c1ccccc1C[C@@H](O)[C@H](Cc1ccccc1)NC(=O)[C@H](CC(=O)OCc1ccccc1)NS(C)(=O)=O", "IC50": 1090}, {"smiles": "CC(C)(C)NC(=O)c1ccccc1C[C@@H](O)[C@H](Cc1ccccc1)NC(=O)[C@H](CC(=O)OCc1ccccc1)NC(N)=O", "IC50": 22400}, {"smiles": "CC(=O)N[C@@H](CS(=O)(=O)c1ccc2ccccc2n1)C(=O)N[C@@H](Cc1ccccc1)[C@H](O)Cc1ccccc1C(=O)NC(C)(C)C", "IC50": 53}, {"smiles": "CC(C)(C)NC(=O)c1ccccc1C[C@@H](O)[C@H](Cc1ccccc1)NC(=O)C(CC(N)=O)NC(=O)c1ccc2ccccc2n1", "note": "(single isomer, unassigned)", "IC50": 23}, {"smiles": "CC(C)(C)NC(=O)c1ccccc1C[C@@H](O)[C@H](Cc1ccccc1)NC(=O)[C@H](CC(=O)NCc1ccc2ccccc2n1)NS(C)(=O)=O", "IC50": 580}, {"smiles": "CC(=O)N[C@@H](CSc1ccc2ccccc2c1)C(=O)N[C@@H](Cc1ccccc1)[C@H](O)Cc1ccccc1C(=O)NC(C)(C)C", "IC50": 1130}, {"smiles": "CC(=O)N[C@H](CS(=O)(=O)c1ccc2ccccc2c1)C(=O)N[C@@H](Cc1ccccc1)[C@H](O)Cc1ccccc1C(=O)NC(C)(C)C", "IC50": 11}]}, {"test_system": "MT2", "assay": "Concentration required for in vitro antiviral activity against HIV-1 virus infected MT2 cells", "assay_type": "functional, cell-based", "details": "Homo sapiens", "units": {"IC50": "nM"}, "values": [{"smiles": "CC(=O)N[C@@H](CSCc1ccccc1)C(=O)N[C@@H](Cc1ccccc1)[C@H](O)Cc1ccccc1C(=O)NC(C)(C)C", "IC50": 3120}, {"smiles": "CC(C)(C)NC(=O)c1ccccc1C[C@@H](O)[C@H](Cc1ccccc1)NC(=O)[C@H](CC(=O)OCc1ccccc1)NS(C)(=O)=O", "IC50": 1270}, {"smiles": "CC(C)(C)NC(=O)c1ccccc1C[C@@H](O)[C@H](Cc1ccccc1)NC(=O)[C@H](CC(=O)OCc1ccccc1)NC(N)=O", "IC50": 11900}, {"smiles": "CC(=O)N[C@@H](CS(=O)(=O)c1ccc2ccccc2n1)C(=O)N[C@@H](Cc1ccccc1)[C@H](O)Cc1ccccc1C(=O)NC(C)(C)C", "IC50": 180}, {"smiles": "CC(C)(C)NC(=O)c1ccccc1C[C@@H](O)[C@H](Cc1ccccc1)NC(=O)[C@H](CC(=O)NCc1ccc2ccccc2n1)NS(C)(=O)=O", "IC50": 1440}, {"smiles": "CC(=O)N[C@@H](CSc1ccc2ccccc2c1)C(=O)N[C@@H](Cc1ccccc1)[C@H](O)Cc1ccccc1C(=O)NC(C)(C)C", "IC50": 1000}, {"smiles": "CC(=O)N[C@H](CS(=O)(=O)c1ccc2ccccc2c1)C(=O)N[C@@H](Cc1ccccc1)[C@H](O)Cc1ccccc1C(=O)NC(C)(C)C", "IC50": 31}]}, {"target": "Human immunodeficiency virus type 1 protease (Human immunodeficiency virus 1, UniProt Q72874)", "assay": "Concentration required for in vitro inhibitory activity against HIV-1 protease", "details": "not given", "units": {"IC50": "nM"}, "values": [{"smiles": "CC(=O)N[C@@H](CC(=O)OCc1ccccc1)C(=O)N[C@@H](Cc1ccccc1)[C@H](O)Cc1ccccc1C(=O)NC(C)(C)C", "IC50": 85}, {"smiles": "CC(=O)N[C@@H](CSCc1ccccc1)C(=O)N[C@@H](Cc1ccccc1)[C@H](O)Cc1ccccc1C(=O)NC(C)(C)C", "IC50": 45}, {"smiles": "CC(C)(C)NC(=O)c1ccccc1C[C@@H](O)[C@H](Cc1ccccc1)NC(=O)[C@H](CC(=O)OCc1ccccc1)NS(C)(=O)=O", "IC50": 5.4}, {"smiles": "CC(=O)N[C@H](CC(=O)OCc1ccccc1)C(=O)N[C@@H](Cc1ccccc1)[C@H](O)Cc1ccccc1C(=O)NC(C)(C)C", "IC50": "> 1000"}, {"smiles": "CC(C)(C)NC(=O)c1ccccc1C[C@@H](O)[C@H](Cc1ccccc1)NC(=O)[C@H](CC(=O)OCc1ccccc1)NC(N)=O", "IC50": 51}, {"smiles": "CC(=O)N[C@@H](CS(=O)(=O)c1ccc2ccccc2n1)C(=O)N[C@@H](Cc1ccccc1)[C@H](O)Cc1ccccc1C(=O)NC(C)(C)C", "IC50": 0.3}, {"smiles": "CC(C)(C)NC(=O)c1ccccc1C[C@@H](O)[C@H](Cc1ccccc1)NC(=O)[C@@H](CC(=O)OCc1ccccc1)NS(C)(=O)=O", "IC50": "> 1000"}, {"smiles": "CC(C)(C)NC(=O)c1ccccc1C[C@@H](O)[C@H](Cc1ccccc1)NC(=O)[C@H](CC(=O)NCc1ccc2ccccc2n1)NS(C)(=O)=O", "IC50": 8}, {"smiles": "CC(=O)N[C@@H](CSc1ccc2ccccc2c1)C(=O)N[C@@H](Cc1ccccc1)[C@H](O)Cc1ccccc1C(=O)NC(C)(C)C", "IC50": 42}, {"smiles": "CC(=O)N[C@H](CSCc1ccccc1)C(=O)N[C@@H](Cc1ccccc1)[C@H](O)Cc1ccccc1C(=O)NC(C)(C)C", "IC50": "> 1000"}, {"smiles": "CC(=O)N[C@H](CS(=O)(=O)c1ccc2ccccc2c1)C(=O)N[C@@H](Cc1ccccc1)[C@H](O)Cc1ccccc1C(=O)NC(C)(C)C", "IC50": 0.3}]}]}
